Source: the supplement of paper PMC10307832

What was measured:
Experiment in all cases: relative viability (nuclei count vs DMSO), 5 days (fraction); higher = more cells survive
Adavosertib + Lapatinib = compound: C=CCn1c(=O)c2cnc(Nc3ccc(N4CCN(C)CC4)cc3)nc2n1-c1cccc(C(C)(C)O)n1 [Adavosertib] + CS(=O)(=O)CCNCc1ccc(-c2ccc3ncnc(Nc4ccc(OCc5cccc(F)c5)c(Cl)c4)c3c2)o1 [Lapatinib] (partner 2 µM)
Summary of the method: (§1)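 Dosing by pin tool came one day after lung cancer cell lines were seeded in 1536-well plates, using either one drug or a fixed anchor-drug dose plus five library-drug doses (not always all listed) in √10 steps. After 5 days, nuclei were counted on 4× images. Relative viability is treated-well nuclei count divided by vehicle-well nuclei count, and values are medians of duplicate plates.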

Nelarabine + Tozasertib = compound: COc1nc(N)nc2c1ncn2[C@@H]1O[C@H](CO)[C@@H](O)[C@@H]1O [Nelarabine] + Cc1cc(Nc2cc(N3CCN(C)CC3)nc(Sc3ccc(NC(=O)C4CC4)cc3)n2)n[nH]1 [Tozasertib] (partner 0.1 µM)
Summary of the method: as §1

Nelarabine + Alpelisib = compound: COc1nc(N)nc2c1ncn2[C@@H]1O[C@H](CO)[C@@H](O)[C@@H]1O [Nelarabine] + Cc1nc(NC(=O)N2CCC[C@H]2C(N)=O)sc1-c1ccnc(C(C)(C)C(F)(F)F)c1 [Alpelisib] (partner 2 µM)
Summary of the method: as §1

Nelarabine + Olaparib = compound: COc1nc(N)nc2c1ncn2[C@@H]1O[C@H](CO)[C@@H](O)[C@@H]1O [Nelarabine] + O=C(c1cc(Cc2n[nH]c(=O)c3ccccc23)ccc1F)N1CCN(C(=O)C2CC2)CC1 [Olaparib] (partner 8 µM)
Summary of the method: as §1

Cell Line | relative viability (Adavosertib + Lapatinib; first compound 0.01 µM) | relative viability (Adavosertib + Lapatinib; first compound 0.03162 µM) | relative viability (Adavosertib + Lapatinib; first compound 0.1 µM) | relative viability (Adavosertib + Lapatinib; first compound 0.3162 µM) | relative viability (Nelarabine + Tozasertib; first compound 0.01 µM) | relative viability (Nelarabine + Tozasertib; first compound 0.03162 µM) | relative viability (Nelarabine + Tozasertib; first compound 0.1 µM) | relative viability (Nelarabine + Tozasertib; first compound 0.3162 µM) | relative viability (Nelarabine + Tozasertib; first compound 1 µM) | relative viability (Nelarabine + Alpelisib; first compound 0.01 µM) | relative viability (Nelarabine + Alpelisib; first compound 0.03162 µM) | relative viability (Nelarabine + Alpelisib; first compound 0.1 µM) | relative viability (Nelarabine + Alpelisib; first compound 0.3162 µM) | relative viability (Nelarabine + Alpelisib; first compound 1 µM) | relative viability (Nelarabine + Olaparib; first compound 0.01 µM) | relative viability (Nelarabine + Olaparib; first compound 0.03162 µM) | relative viability (Nelarabine + Olaparib; first compound 0.1 µM) | relative viability (Nelarabine + Olaparib; first compound 0.3162 µM) | relative viability (Nelarabine + Olaparib; first compound 1 µM)
NCI-H520 | 0.923 | 0.822 | 0.802 | 0.858 | 0.574 | 0.315 | 0.429 | 0.457 | 0.429 | 1.16 | 0.924 | 1.16 | 1.03 | 1.1 | 0.29 | 0.29 | 0.343 | 0.366 | 0.363
HCC-44 | 0.976 | 1.04 | 1.08 | 1.14 | 1.27 | 1.25 | 1 | 1.11 | 0.867 | 0.888 | 0.876 | 0.74 | 0.871 | 0.831 | 1.07 | 0.972 | 0.948 | 0.975 | 0.986
NCI-H2087 | 0.951 | 1.21 | 1.15 | 1.3 | 0.303 | 0.24 | 0.22 | 0.19 | 0.245 | 1.19 | 1.13 | 0.986 | 0.969 | 1.07 | 0.713 | 0.421 | 0.73 | 0.68 | 0.72
CAL-12T | – | 0.678 | 0.598 | 0.464 | 0.358 | 0.309 | 0.316 | 0.303 | 0.363 | 1.86 | 1.48 | 1.16 | 1.4 | 1.37 | 0.662 | 0.87 | 0.748 | 0.676 | 0.73
NCI-H1355 | 0.955 | 1.02 | 0.966 | 0.948 | 0.521 | 0.483 | 0.478 | 0.539 | 0.577 | 1.09 | 0.615 | 0.813 | 0.894 | 0.801 | 0.824 | 0.6 | 0.684 | 0.766 | 0.74
HARA | 0.648 | 0.858 | 0.648 | 0.729 | 0.119 | 0.112 | 0.0991 | 0.0991 | 0.105 | 0.925 | 0.737 | 0.768 | 1.09 | 0.806 | 0.843 | 0.569 | 0.746 | 0.834 | 0.636
NCI-H2085 | 0.743 | 0.813 | 0.86 | 0.836 | 0.847 | 0.914 | 0.733 | 0.882 | 0.736 | 1.06 | 0.992 | 0.94 | 1.01 | 1.02 | 0.815 | 0.768 | 0.731 | 0.802 | 0.74
IA-LM | 0.996 | – | 1.03 | 0.901 | – | – | – | – | – | 0.928 | 0.957 | 0.789 | 0.871 | 0.826 | 0.932 | 0.811 | 0.877 | 0.825 | 0.789
LCLC-103H | – | – | – | – | 0.674 | 0.358 | 0.373 | 0.479 | 0.47 | 1.01 | 0.989 | 0.985 | 0.936 | 0.956 | 0.951 | 0.754 | 0.838 | 0.762 | 0.815
NCI-H2405 | 1.09 | 1.13 | 1.04 | 1.11 | 0.805 | 0.682 | 0.663 | 0.73 | 0.67 | 0.842 | 0.794 | 0.74 | 0.647 | 0.801 | 0.948 | 0.834 | 0.83 | 0.899 | 0.896
NCI-H1666 | 0.618 | 0.667 | 0.65 | 0.575 | 0.626 | 0.572 | 0.606 | 0.578 | 0.632 | 0.99 | 0.917 | 0.957 | 1.05 | 0.883 | 0.681 | 0.638 | 0.737 | 0.665 | 0.769
Calu-6 | 1.07 | 1 | 1.04 | 0.356 | – | – | – | – | – | 1.1 | – | 0.979 | 0.972 | 1.11 | 0.67 | 0.65 | 0.698 | 0.575 | 0.594
BEN | 0.751 | 0.728 | 0.801 | 0.948 | 0.566 | 0.495 | 0.551 | 0.546 | 0.452 | 1.53 | 0.95 | 1.1 | 1.06 | 1.08 | 1.3 | 1.08 | 1.11 | 1.04 | 1.25
201T | 1.02 | 1.01 | 1.02 | 1.09 | 1.12 | 0.692 | 0.885 | 1.08 | 0.926 | 1.06 | 1.02 | 0.968 | 1.03 | 1 | 0.876 | 0.835 | 0.845 | 0.858 | 0.835
NCI-H322M | – | 0.558 | 0.505 | 0.435 | 0.554 | 0.485 | 0.407 | 0.501 | 0.456 | 0.926 | 0.792 | 0.677 | 0.772 | 0.836 | 0.79 | 0.75 | 0.701 | 0.827 | 0.836
